In patent US20190231768A1, “P[…] TREATING DRUG INDUCED DYSKINESIAS” (PRILENIA THERAPEUTICS DEVELOPMENT LTD., priority 2017, published 2019):
Like-named read-outs stand apart in the source and are kept apart here.

Experiments:
[1] = target: σ1R (Homo sapiens, UniProt Q99720); conditions: human 67.5 mg bid; based on human PET data and PK profile
[2] = target: Adrenergic α2C (Homo sapiens, UniProt P18825)
Protocol: (§1) NMDA, 5-HT6 and tachykinin NK1 receptors along with the dopamine transporter (DAT), norepinephrine transporter (NET) and serotonin transporter (SERT). The specific ligand binding to the receptors was defined as the difference between the total binding and the nonspecific binding determined in the presence of an excess of unlabeled ligand. IC50 values were determined by a non-linear, least squares regression analysis using MathIQ™ (ID Business Solutions Ltd., UK). […] Hill coefficient (nH), defining the slope of the competitive binding curve, was calculated using MathIQ™.

[3] = target: Dopamine D2 (Homo sapiens, UniProt P14416)
Protocol: as §1

[4] = system: adrenergic alpha-1; conditions: in the micromolar range
Protocol: as §1

[5] = target: Norepinephrine transporter (NET) (Homo sapiens, UniProt P23975)
Protocol: as §1

[6] = target: Dopamine D3 (Homo sapiens, UniProt P35462)
Protocol: as §1

[7] = target: Sigma-2 (σ2R) (Homo sapiens, UniProt Q5BJF2)
Protocol: as §1

[8] = target: 5-HT6 (Homo sapiens, UniProt P50406)
Protocol: as §1

[9] = target: Histamine H3 (Homo sapiens, UniProt Q9Y5N1)
Protocol: as §1

[10] = system: MPTP-lesioned macaques with L-DOPA-induced dyskinesia
Protocol: The study was conducted in two separate experiments. […] Animals: Eight cynomolgus monkeys (Macaca fascicularis, 8-14 years of age, 3.0-4.8 kg, Suzhou Xishan-Zhongke Laboratory Animal Company, PRC) were used in this study. Fresh fruit, primate pellets and water were available ad libitum other than at times of overnight fasting (from 5 pm) prior to days of behavioral assessment. The housing rooms were subject to a 12-hour light-dark cycle (lights on 7 a.m.), 20-25° C. in a room containing only animals of the same sex.
MPTP administration and development of motor complications: Animals received once-daily subcutaneous injection of MPTP (0.2 mg/kg in 0.9% sterile-saline, Sigma-Aldrich, Oakville, ON, Canada) for 8-30 days. A parkinsonian syndrome was then allowed to develop over at least a 90-day period, during which time additional MPTP administrations were given as necessary, until animals reached moderate to marked levels of disability. […] MPTP lesions were allowed to stabilize for a minimum of a further 60-day prior to commencing induction of L-DOPA-induced motor complications. LID, including both choreiform and dystonic dyskinesia, were evoked by chronic L-DOPA treatment (25 mg/kg, Madopar™, Roche, L-DOPA: benserazide, ratio 4:1) for at least 4-months. During this same period animals were acclimatized to the experimental setting, trained to provide blood samples (while restrained in chair) and to receive administration of treatment by oral, intravenous or subcutaneous routes.
The response to this dose of L-DOPA was assessed to ensure stability and reproducibility within each animal on successive L-DOPA administrations.
For both studies, on the day before behavioral observations, food was removed overnight, from 5 p.m. On days of behavioral assessment, treatments were administered to the animals in their home cages. Animals were then transferred to an observation cage for behavioral assessment. […] The effects of treatments on parkinsonian disability, dyskinesia, duration and quality of anti-parkinsonian benefit (on-time) and activity were assessed and analyzed for a period of 6 hours (h).
Assessment of parkinsonian disability, dyskinesia (chorea and dystonia) and activity: Animals were transferred to individual observation cages (1.5×1.0×1.1 m) and their behavior recorded on HD-video. Rating scales for parkinsonism and dyskinesia adapted from their clinical counterparts (UPDRS pt. III and UDysRS respectively) were used to assess recordings via post-hoc analysis by a movement disorders neurologist blinded to treatment. […] Dyskinesia, representative of the maximum of either chorea or dystonia was scored as 0—absent, 1—mild, 2—moderate, 3—marked or 4—severe. Parkinsonian disability and dyskinesia were assessed for 5-min every 10-min, the score given being most representative of each 5-min observation period. Scores were summed for each hour for time-course analyses and across the entire observation period (0-6 h).
The duration of anti-parkinsonian action, on-time, was defined as the number of minutes for which the bradykinesia score was zero. In addition, the duration of on-time associated with dyskinesia of varying severity was calculated as follows. On-time with disabling dyskinesia, ‘bad’-on-time was calculated the number of minutes for which the bradykinesia score was zero while the dyskinesia score was greater than 2. Meanwhile, on-time without disabling dyskinesia, ‘good’-on-time represents the number of minutes for which the bradykinesia score is zero while the dyskinesia score is 2 or less.
Statistical analyses: Data derived from assessment of duration and quality of on-time were plotted as mean±s.e.m. […] Data for measures of parkinsonian disability and dyskinesia were graphed, where appropriate, as median scores alone (time course) or box and whisker plots (cumulated totals). Time course data for parkinsonian disability and dyskinesia were first ranked within each animal across all treatments using Excel's RANKAVG function. […]

[11] = system: HD patients; conditions: cited from earlier work; for TMS change from baseline vs placebo: HD stage 1 (baseline TFC≥11), post hoc
[12] = study 2, 30 mg/kg, cumulated 0-2 h

Sequence of Dopamine D2 (P14416 whole entry): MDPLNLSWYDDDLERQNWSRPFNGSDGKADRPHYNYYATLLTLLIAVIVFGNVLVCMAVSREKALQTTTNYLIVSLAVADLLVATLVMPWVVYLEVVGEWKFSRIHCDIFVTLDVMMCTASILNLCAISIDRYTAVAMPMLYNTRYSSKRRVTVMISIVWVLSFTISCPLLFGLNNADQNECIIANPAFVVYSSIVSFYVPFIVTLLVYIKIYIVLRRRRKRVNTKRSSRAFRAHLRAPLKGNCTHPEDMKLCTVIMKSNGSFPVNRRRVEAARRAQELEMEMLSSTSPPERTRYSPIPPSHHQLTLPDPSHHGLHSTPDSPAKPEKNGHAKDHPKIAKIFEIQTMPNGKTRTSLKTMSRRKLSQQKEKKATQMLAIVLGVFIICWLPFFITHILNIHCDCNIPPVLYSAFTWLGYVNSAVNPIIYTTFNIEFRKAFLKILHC
Sequence of Adrenergic α2C (P18825 whole entry): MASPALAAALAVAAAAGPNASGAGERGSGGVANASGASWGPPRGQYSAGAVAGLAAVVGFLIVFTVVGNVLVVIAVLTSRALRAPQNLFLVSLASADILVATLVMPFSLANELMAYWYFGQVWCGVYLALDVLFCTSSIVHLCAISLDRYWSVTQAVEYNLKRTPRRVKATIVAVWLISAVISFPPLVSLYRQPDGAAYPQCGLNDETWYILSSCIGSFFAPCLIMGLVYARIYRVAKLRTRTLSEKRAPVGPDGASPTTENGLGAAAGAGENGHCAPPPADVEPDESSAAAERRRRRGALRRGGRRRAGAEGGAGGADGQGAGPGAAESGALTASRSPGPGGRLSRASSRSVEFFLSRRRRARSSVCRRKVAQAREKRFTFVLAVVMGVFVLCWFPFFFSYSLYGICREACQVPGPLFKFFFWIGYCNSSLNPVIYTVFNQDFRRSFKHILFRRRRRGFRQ
Sequence of σ1R (Q99720 whole entry): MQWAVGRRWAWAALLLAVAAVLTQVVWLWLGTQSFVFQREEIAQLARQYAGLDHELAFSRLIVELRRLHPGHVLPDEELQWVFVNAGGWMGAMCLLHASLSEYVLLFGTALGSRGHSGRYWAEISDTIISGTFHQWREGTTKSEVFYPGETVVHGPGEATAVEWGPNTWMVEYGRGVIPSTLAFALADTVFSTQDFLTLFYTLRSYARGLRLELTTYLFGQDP
Sequence of Dopamine D3 (P35462 whole entry): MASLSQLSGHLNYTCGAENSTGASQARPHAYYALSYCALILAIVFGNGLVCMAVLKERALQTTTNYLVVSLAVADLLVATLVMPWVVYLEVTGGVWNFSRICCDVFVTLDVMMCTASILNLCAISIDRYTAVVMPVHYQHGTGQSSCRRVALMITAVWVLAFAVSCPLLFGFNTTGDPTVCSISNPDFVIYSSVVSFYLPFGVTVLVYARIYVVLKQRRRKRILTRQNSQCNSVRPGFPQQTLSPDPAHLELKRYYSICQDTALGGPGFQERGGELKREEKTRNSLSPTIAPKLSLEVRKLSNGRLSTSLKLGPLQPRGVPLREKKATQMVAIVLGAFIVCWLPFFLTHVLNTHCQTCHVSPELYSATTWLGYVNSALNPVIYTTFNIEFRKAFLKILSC
Sequence of Norepinephrine transporter (NET) (P23975 whole entry, species assumed): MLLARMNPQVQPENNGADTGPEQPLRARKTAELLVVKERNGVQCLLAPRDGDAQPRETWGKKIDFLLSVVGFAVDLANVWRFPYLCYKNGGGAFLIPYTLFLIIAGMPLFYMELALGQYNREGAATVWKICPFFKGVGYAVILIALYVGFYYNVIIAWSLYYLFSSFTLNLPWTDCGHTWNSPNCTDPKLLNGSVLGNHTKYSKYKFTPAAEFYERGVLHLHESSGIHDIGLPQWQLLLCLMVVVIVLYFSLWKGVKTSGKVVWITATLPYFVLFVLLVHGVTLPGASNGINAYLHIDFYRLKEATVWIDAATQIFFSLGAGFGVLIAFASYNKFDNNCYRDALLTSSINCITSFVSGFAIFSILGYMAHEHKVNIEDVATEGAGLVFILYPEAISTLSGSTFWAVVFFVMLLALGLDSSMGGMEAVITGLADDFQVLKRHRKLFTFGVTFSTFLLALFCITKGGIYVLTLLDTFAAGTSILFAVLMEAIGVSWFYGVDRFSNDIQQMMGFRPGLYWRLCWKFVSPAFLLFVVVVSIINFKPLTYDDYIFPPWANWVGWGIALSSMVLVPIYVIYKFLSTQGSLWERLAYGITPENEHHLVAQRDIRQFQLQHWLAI
Sequence of Sigma-2 (σ2R) (Q5BJF2 whole entry): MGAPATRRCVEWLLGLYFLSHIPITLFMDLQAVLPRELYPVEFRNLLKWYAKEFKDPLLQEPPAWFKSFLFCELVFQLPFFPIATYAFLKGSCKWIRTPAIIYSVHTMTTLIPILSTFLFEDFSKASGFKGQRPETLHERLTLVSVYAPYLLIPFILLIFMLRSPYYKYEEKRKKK
Sequence of 5-HT6 (P50406 whole entry, species assumed): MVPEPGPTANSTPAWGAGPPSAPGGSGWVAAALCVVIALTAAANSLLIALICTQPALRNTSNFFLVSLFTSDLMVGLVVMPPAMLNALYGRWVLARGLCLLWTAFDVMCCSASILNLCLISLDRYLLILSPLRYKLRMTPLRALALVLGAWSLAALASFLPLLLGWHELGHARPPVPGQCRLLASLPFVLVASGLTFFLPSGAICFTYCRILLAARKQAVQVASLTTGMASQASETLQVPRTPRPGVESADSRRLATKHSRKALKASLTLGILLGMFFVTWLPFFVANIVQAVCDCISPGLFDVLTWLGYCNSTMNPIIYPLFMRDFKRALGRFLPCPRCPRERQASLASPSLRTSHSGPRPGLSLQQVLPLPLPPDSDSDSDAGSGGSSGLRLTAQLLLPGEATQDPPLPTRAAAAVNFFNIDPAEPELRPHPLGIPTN
Sequence of Histamine H3 (Q9Y5N1 whole entry): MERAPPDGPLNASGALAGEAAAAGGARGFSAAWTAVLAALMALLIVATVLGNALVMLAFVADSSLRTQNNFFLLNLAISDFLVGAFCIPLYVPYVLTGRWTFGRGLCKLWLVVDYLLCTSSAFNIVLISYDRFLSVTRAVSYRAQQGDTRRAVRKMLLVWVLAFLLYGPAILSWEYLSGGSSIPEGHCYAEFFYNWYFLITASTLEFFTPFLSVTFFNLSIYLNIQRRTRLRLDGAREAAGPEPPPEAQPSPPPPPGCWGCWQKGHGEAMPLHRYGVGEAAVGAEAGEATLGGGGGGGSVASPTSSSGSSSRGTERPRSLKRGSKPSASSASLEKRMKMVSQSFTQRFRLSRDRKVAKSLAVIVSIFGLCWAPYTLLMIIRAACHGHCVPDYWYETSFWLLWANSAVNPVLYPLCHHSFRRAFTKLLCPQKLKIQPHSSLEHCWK

S1R occupancy (estimated) [1]: fully occupy the S1Rs | nH (Hill coefficient) [2]: 0.76 | binding against the dopamine D2 receptors [3]: negligible or no binding | nH (Hill coefficient) [3]: 0.94 | binding [4]: low-affinity binding | binding [5]: no observed binding | nH (Hill coefficient) [6]: 0.90 | nH (Hill coefficient) [7]: 0.80 | binding [8]: no observed binding | nH (Hill coefficient) [9]: 0.85
SMILES: CCCN1CCC(c2cccc(S(C)(=O)=O)c2)CC1 [pridopidine, 4-(3-(methylsulfonyl)phenyl)-1-propylpiperidine]
Dyskinesia (time course), significance cf. LDh-vehicle ([10]; 20 mg/kg + LDh, hr 1): * (*/**/*** represents P < 0.05, P < 0.01 or P < 0.001 cf. vehicle-treatment) | L-DOPA induced Dystonia (time course), significance cf. LDh-vehicle ([10]; 20 mg/kg + LDh, hr 1): * (*/**/*** represents P < 0.05, P < 0.01 or P < 0.001 cf. vehicle-treatment) | Dyskinesia (time course), significance cf. LDh-vehicle ([10]; 30 mg/kg + LDh, hr 1): ** (*/**/*** represents P < 0.05, P < 0.01 or P < 0.001 cf. vehicle-treatment) | L-DOPA induced Dystonia (time course), significance cf. LDh-vehicle ([10]; 30 mg/kg + LDh, hr 1): ** (*/**/*** represents P < 0.05, P < 0.01 or P < 0.001 cf. vehicle-treatment) | Dyskinesia (time course), significance cf. LDh-vehicle ([10]; 30 mg/kg + LDh, hr 2): *** (*/**/*** represents P < 0.05, P < 0.01 or P < 0.001 cf. vehicle-treatment) | L-DOPA induced Dystonia (time course), significance cf. LDh-vehicle ([10]; 30 mg/kg + LDh, hr 2): *** (*/**/*** represents P < 0.05, P < 0.01 or P < 0.001 cf. vehicle-treatment) | L-DOPA induced Dystonia (time course), significance cf. LDh-vehicle ([10]; 30 mg/kg + LDh, hr 3): * (*/**/*** represents P < 0.05, P < 0.01 or P < 0.001 cf. vehicle-treatment) | LID ([10]; MPTP-lesioned NHPs, high-dose): significant and meaningful decrease | LID ([10]; PD NHP model, low doses): ineffective | total duration of on-time or extent of anti-parkinsonian benefit of L-DOPA ([10]; study 1): absence of any change | anti-parkinsonian benefit afforded by L-DOPA ([10]; study 1, 7 mg/kg, first two hours of observation): modest decrease | total duration of on-time ([10]; study 2, 0-6 h): no change | median level of dyskinesia ([10]; study 2, 20 mg/kg, first hour): between moderate and marked | median level of dystonia ([10]; study 2, 20 mg/kg, first hour): between moderate and marked | 'bad' quality on-time ([10]; study 2, 30 mg/kg): 66 min | decrease in 'bad' quality on-time compared to vehicle ([10]; study 2, 30 mg/kg): 60% | median level of dyskinesia [10, 12]: below mild (non-disabling) | median level of dystonia [10, 12]: below mild (non-disabling) | reduction of median levels of dyskinesia compared to LDh-vehicle [10, 12]: 71% | reduction of median levels of dystonia compared to LDh-vehicle [10, 12]: 72% | median level of dyskinesia ([10]; study 2, 30 mg/kg, first and second hours): mild to moderate | median level of dystonia ([10]; study 2, 30 mg/kg, first to third hours): mild to moderate | proportion of on-time of 'good' quality cf. LDh-vehicle ([10]; study 2, any dose): no difference | difference in TFC score decline vs placebo ([11]; 45 mg bid, 52 weeks, nominal p=0.003): 0.87 (95% confidence interval: 0.29-1.45) | TMS change from baseline vs placebo ([11]; 45 mg bid, weeks 26 or 52): trend towards improvement | TMS change from baseline vs placebo ([11]; 112.5 mg bid, 52 weeks): no improvement | TFC decline ([11]; high dose (>90 mg bid)): failed to show improvement | TMS efficacy compared to placebo or the 45 mg bid dose ([11]; high doses (≥67.5 bid)): none of the high doses of pridopidine (≥67.5 bid) showed improved efficacy
